Laboratory results from US6858638B2, “Substituted indazoles, compositions containing them, method of production and use” (Aventis Pharma S.A., priority 2002, dated 2005).

Experiments:
Format in all cases: biochemical
human FAK = molecular target: T1, human FAK (Homo sapiens, UniProt Q05397); assay: FAK autophosphorylation inhibition, time resolved fluorescence (HTRF) assay; settings: for inhibition at 10 µM: read-out: FAK % inhib at 10 μM; for inhibition at 30 µM: 30 μM (values marked *), read-out: FAK % inhib at 30* μM
T1 construct: The complete cDNA of human FAK; made in house; host or cells: baculovirus expression system (vector pFastBac HTc)
T1 sequence (Q05397 whole entry): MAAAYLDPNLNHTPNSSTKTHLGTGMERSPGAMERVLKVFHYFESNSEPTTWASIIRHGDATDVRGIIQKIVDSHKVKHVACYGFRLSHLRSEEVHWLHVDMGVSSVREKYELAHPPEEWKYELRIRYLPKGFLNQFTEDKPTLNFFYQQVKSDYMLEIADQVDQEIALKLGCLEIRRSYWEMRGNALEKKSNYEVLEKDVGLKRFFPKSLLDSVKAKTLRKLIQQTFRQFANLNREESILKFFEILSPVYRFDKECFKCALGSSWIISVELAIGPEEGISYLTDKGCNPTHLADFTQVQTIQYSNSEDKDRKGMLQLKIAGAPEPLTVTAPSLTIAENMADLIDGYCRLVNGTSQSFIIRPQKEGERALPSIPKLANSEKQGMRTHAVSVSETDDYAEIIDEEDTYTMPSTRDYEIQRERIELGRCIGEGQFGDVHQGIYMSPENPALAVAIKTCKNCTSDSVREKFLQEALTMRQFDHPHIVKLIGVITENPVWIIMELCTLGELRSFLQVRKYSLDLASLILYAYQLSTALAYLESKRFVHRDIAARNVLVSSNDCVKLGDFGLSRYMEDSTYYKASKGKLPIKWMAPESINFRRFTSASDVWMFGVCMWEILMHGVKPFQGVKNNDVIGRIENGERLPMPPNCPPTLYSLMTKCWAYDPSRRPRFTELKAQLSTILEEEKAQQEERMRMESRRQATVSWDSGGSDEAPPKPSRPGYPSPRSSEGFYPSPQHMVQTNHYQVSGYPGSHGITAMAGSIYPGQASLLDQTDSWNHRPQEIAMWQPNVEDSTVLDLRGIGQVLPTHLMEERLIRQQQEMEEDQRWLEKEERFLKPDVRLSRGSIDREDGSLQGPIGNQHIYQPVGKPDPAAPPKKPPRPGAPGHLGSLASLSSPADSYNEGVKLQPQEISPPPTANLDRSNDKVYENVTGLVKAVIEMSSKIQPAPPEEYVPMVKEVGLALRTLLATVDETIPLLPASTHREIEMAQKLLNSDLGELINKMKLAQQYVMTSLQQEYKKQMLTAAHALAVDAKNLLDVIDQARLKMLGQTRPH
Procedure: The inhibitory activity of the compounds on FAK is determined by measuring the inhibition of the autophosphorylation of the enzyme using a time resolved fluorescence (HTRF) assay.
The complete cDNA of human FAK, the N-terminal end of which was labeled with histidine, was cloned into a baculovirus expression vector pFastBac HTc. The protein was expressed and purified to approximately 70% homogeneity.
The kinase activity is determined by incubating the enzyme (6.6 μg/ml) with various concentrations of test compound in a 50 mM Hepes buffer, pH=7.2, containing 10 mM MgCl2, 100 μM Na3VO4 and 15 μM d'ATP for 1 hour at 37° C. The enzyme reaction is stopped by adding Hepes buffer, pH=7.0, containing […], 133 mM EDTA and 0.1% BSA, and the labeling is carried out, over 1 to 2 hours at ambient temperature, by adding to this buffer an anti-Histidine antibody labeled with XL665 and a monoclonal antibody phosphospecific for tyrosine, conjugated to europium cryptate (Eu-K). The characteristics of the two fluorophores are available in G. Mathis et al., Anticancer Research, 1997, 17, pages 3011-3014. The transfer of energy from the excited europium cryptate to the XL665 acceptor is proportional to the degree of autophosphorylation of FAK. The long-lived signal specific for XL-665 is measured in a Packard Discovery plate counter. All the assays are carried out in duplicate and the mean of the two assays is calculated. The inhibition of the FAK autophosphorylation activity with compounds of the invention is expressed as percentage inhibition compared to a control whose activity is measured in the absence of test compound. The [signal at 665 nm/signal at 620 nm] ratio is used for the calculation of the % inhibition.

human KDR enzyme = molecular target: T2, human KDR enzyme (Homo sapiens, UniProt P35968); assay: KDR substrate (PLCγ) phosphorylation, scintillation assay; settings: 10 μM; for inhibition at 10 µM: read-out: KDR % inhib at 10 μM
T2 construct: The cytoplasmic domain of the human KDR enzyme; GST; made in house; host or cells: SF21 insect cells (baculovirus)
T2 sequence (P35968 786-1356 limits assumed): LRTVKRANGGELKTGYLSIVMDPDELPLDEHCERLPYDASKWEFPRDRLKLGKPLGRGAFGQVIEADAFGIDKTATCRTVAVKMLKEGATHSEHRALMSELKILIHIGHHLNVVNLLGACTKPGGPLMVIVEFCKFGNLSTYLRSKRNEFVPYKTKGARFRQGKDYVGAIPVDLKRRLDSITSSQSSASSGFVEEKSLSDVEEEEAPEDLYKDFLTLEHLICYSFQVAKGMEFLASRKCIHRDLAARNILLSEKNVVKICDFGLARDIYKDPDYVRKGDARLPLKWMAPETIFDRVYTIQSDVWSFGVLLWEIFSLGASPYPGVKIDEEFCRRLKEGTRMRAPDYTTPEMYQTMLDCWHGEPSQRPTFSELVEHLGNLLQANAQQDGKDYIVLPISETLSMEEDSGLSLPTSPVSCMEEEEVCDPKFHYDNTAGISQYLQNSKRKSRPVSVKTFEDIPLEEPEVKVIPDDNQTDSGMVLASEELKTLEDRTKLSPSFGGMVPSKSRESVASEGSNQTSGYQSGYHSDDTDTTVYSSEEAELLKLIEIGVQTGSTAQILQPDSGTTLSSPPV
Procedure: The inhibitory effect of the compounds is determined in an assay of substrate phosphorylation by the KDR enzyme in vitro using a scintillation technique (96-well plate, NEN).
The cytoplasmic domain of the human KDR enzyme was cloned in the form of a GST fusion into the baculovirus expression vector pFastBac. The protein was expressed in SF21 cells and purified to approximately 60% homogeneity.
The KDR kinase activity is measured in 20 mM MOPS, 10 mM MgCl2, 10 mM MnCl2, 1 mM DTT, 2.5 mM EGTA, 10 mM β-glycerophosphate, pH=7.2, in the presence of 10 mM MgCl2, 100 μM Na3VO4, 1 mM NaF. 10 μl of the compound are added to 70 μl of kinase buffer containing 100 ng of KDR enzyme at 4° C. The reaction is triggered by adding 20 μl of solution containing 2 μg of substrate (SH2-SH3 fragment of PLCγ expressed in the form of a GST fusion protein), 2 μCi γ^33P[ATP] and 2 μM cold ATP. After incubation for 1 hour at 37° C., the reaction is stopped by adding 1 volume (100 μl) of 200 mM EDTA. The incubation buffer is removed and the wells are washed three times with 300 μl of PBS. The radioactivity is measured in each well using Top Count NXT radioactivity counter (Packard).
The background noise is determined by measuring the radioactivity in four different wells containing the radioactive ATP and the substrate alone.
A control for total activity is measured in four different wells containing all the reagents (γ^33P-[ATP], KDR and PLCγ substrate) but in the absence of compound.
The inhibition of the KDR activity with the compound of the invention is expressed as percentage inhibition of the control activity determined in the absence of compound.
The compound SU5614 (Calbiochem) (1 μM) is included in each plate as an inhibition control.

Aurora2 kinase = molecular target: T3, Aurora2 kinase (Homo sapiens, UniProt O14965); assay: Aurora2 kinase radioactivity scintillation assay using nickel chelate (NuMA substrate); settings: 10 μM; for inhibition at 10 µM: read-out: Aurora2 % inhib at 10 μM
T3 construct: A complete recombinant Aurora2 enzyme; His tag (N); made in house; host or cells: E. coli
T3 sequence (O14965 1-403): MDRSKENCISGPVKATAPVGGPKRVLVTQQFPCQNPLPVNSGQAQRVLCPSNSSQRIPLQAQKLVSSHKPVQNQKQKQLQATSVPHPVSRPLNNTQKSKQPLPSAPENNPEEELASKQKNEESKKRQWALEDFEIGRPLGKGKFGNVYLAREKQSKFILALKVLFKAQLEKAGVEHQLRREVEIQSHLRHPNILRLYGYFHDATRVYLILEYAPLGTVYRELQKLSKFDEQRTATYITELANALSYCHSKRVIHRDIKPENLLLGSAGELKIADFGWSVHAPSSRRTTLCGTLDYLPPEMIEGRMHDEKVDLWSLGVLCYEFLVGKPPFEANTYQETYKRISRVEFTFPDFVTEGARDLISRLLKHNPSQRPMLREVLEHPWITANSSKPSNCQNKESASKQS
Procedure: The inhibitory effect of compounds with respect to the Aurora2 kinase is determined with a radioactivity scintillation assay using nickel chelate.
A complete recombinant Aurora2 enzyme, the N-terminal end of which was labeled with histidine, was expressed in E. coli and purified to a quality close to homogeneity.
The C-terminal fragment (Q1687-H2101) of a NuMA (Nuclear protein that associates with the Mitotic Apparatus) expressed in E. coli, and the N-terminal end of which was labeled with histidine, was purified by nickel chelate chromatography and used as substrate in the Aurora2 kinase assay. In order to determine the kinase activity, the NuMA substrate is equilibrated by chromatography on a Pharmacia PD10 column, in a buffer (50 mM Tris HCl, pH7.5, 50 mM NaCl, 10 mM MgCl2) to which 10% (v/v) of glycerol and 0.05% (w/v) of NP40 have been added.
The kinase acivitity of Aurora2 is measured by scintillation with nickel chelate (New England Nuclear, model SMP107). Each well contains 100 μl of the following solution: 0.02 μM of Aurora2; 0.5 μM of NuMA substrate; 1 μM of ATP to which 0.5 μCi of ATP-[^33P] has been added. The solutions are incubated for 30 minutes at 37° C. The assay buffer is then removed and the wells are rinsed twice with 300 μl of kinase buffer. The radioactivity is measured in each well using a Packard Model Top Count NXT device.
The background noise is deduced from the measurement of radioactivity by measuring, in duplicate, in wells containing the radioactive ATP alone containing buffered kinase treated in the same way as the other samples.
The activity of the control is determined by measuring, in duplicate, the radioactivity in the complete assay mixture (ATP, Aurora2 and the NuMA substrate) in the absence of test compound.
The inhibition of the Aurora2 with a compound of the invention is expressed as percentage inhibition of the control activity in the absence of test compound. Staurosporine is added to each plate as an inhibition control.

[1] = 10 μM (values without asterisk)

Row | SMILES | inhibition at 10 µM (human FAK; [1]) | inhibition at 10 µM (human KDR enzyme) | inhibition at 10 µM (Aurora2 kinase) | also measured
1 | O=S(=O)(Nc1ccc2[nH]nc(-c3ccccc3)c2c1)c1ccc(OC(F)(F)F)cc1 [Example 160, 4-Trifluoromethoxy-N-(3-phenyl-1H-indazol-5-yl)benzenesulfonamide] | 3% | 51% | 26% | 
2 | CCCS(=O)(=O)Nc1ccc2[nH]nc(-c3ccccc3)c2c1 [Example 128, N-(3-Phenyl-1H-indazol-5-yl)propanesulfonamide] | 55% | 49% | 87% | 
3 | NC(=O)c1n[nH]c2ccc(NS(=O)(=O)c3cccc(F)c3)cc12 [Example 21] |  | 80% |  | inhibition at 30 µM (human FAK): 76%
4 | CNC(=O)c1n[nH]c2ccc(NS(=O)(=O)c3cccc(F)c3)cc12 [Example 19, N-Methyl-5-(3-fluorobenzenesulfonylamino)-1H-indazole-3-carboxamide] | 85% | 73% |  | 
5 | N#Cc1ccc(S(=O)(=O)Nc2ccc3[nH]nc(-c4ccccc4)c3c2)cc1 [Example 143, 4-Cyano-N-(3-phenyl-1H-indazol-5-yl)-benzenesulfonamide] | 23% | 87% | 64% | 
6 | CC(=O)Nc1ccc(S(=O)(=O)Nc2ccc3[nH]nc(-c4ccccc4)c3c2)cc1 [Example 118, N-[4-(3-Phenyl-1H-indazol-5-ylsulfamoyl)phenyl]acetamide] |  |  |  | FAK % inhib at 10 μM (human FAK; 10 μM (values without asterisk), 10 µM): 8%; KDR % inhib at 10 μM (human KDR enzyme): 53%; Aurora2 % inhib at 10 μM (Aurora2 kinase): 52%
7 | CS(=O)(=O)Nc1ccc2[nH]nc(-c3ccccc3)c2c1 [Example 124, N-(3-Phenyl-1H-indazol-5-yl)-methanesulfonamide] | 16% | 55% | 60% | 
8 | CCS(=O)(=O)Nc1ccc2[nH]nc(-c3ccccc3)c2c1 [Example 127, N-(3-Phenyl-1H-indazol-5-yl)-ethanesulfonamide] | 32% | 63% | 78% | 
9 | O=S(=O)(Nc1ccc2[nH]nc(Cl)c2c1)c1ccc(Cl)c(Cl)c1 [Example 2, N-(3-Chloro-1H-indazol-5-yl)-3,4-dichlorobenzenesulfonamide] |  | 43% |  | inhibition at 30 µM (human FAK): 75%
10 | O=S(=O)(Oc1ccc2[nH]ncc2c1)c1cccc(F)c1 [Example 17, 1H-Indazol-5-yl 3-fluorobenzenesulfonate] | 59% | 46% |  | 
11 | O=S(=O)(Nc1ccc2[nH]ncc2c1)c1cccc(F)c1 [Example 15, 3-Fluoro-N-(1H-indazol-5-yl)benzenesulfonamide] |  | 13% |  | inhibition at 30 µM (human FAK): 67%
12 | O=S(=O)(Nc1ccc2[nH]nc(O)c2c1)c1cccc(F)c1 [Example 16, 3-Fluoro-N-(3-hydroxy-1H-indazol-5-yl)benzenesulfonamide] | 58% | 8% |  | 
13 | O=S(=O)(Nc1ccc2[nH]nc(I)c2c1)c1cccc(F)c1 [Example 12, 3-Fluoro-N-(3-iodo-1H-indazol-5-yl)benzenesulfonamide] |  | 39% |  | inhibition at 30 µM (human FAK): 92%
14 | O=S(=O)(Nc1cccc(F)c1)c1ccc2[nH]ncc2c1 [Example 11, N-(3-Fluorophenyl)-(1H-indazol-5-yl)sulfonamide] | 59% | 7% |  | 

Continued, in another order:

Row | inhibition at 10 µM (human FAK; [1]) | inhibition at 10 µM (human KDR enzyme) | inhibition at 10 µM (Aurora2 kinase) | SMILES | also measured
15 |  |  | 100% | CS(=O)(=O)c1ccccc1S(=O)(=O)Oc1ccc2[nH]nc(-c3nc4ccccc4[nH]3)c2c1 [Example 226, 3-(1H-Benzimidazol-2-yl)-1H-indazol-5-yl-2-methanesulfonylbenzenesulfonate] | 
16 | 36% | 69% | 52% | COc1ccc(S(=O)(=O)Nc2ccc3[nH]nc(-c4ccccc4)c3c2)cc1 [Example 120, 4-Methoxy-N-(3-phenyl-1H-indazol-5-yl)-benzenesulfonamide] | 
17 | 5% | 39% | 27% | CC(C)(C)c1ccc(S(=O)(=O)Nc2ccc3[nH]nc(-c4ccccc4)c3c2)cc1 [Example 121, 4-tert-Butyl-N-(3-phenyl-1H-indazol-5-yl)-benzenesulfonamide] | 
18 |  |  | 100% | CS(=O)(=O)c1ccccc1S(=O)(=O)Oc1ccc2[nH]nc(-c3cc4ccccc4[nH]3)c2c1 [Example 227] | 
19 | 32% | 25% | 65% | CC(=O)Nc1ccccc1-c1n[nH]c2ccc(NS(=O)(=O)c3cccc(F)c3)cc12 [Example 47, N-{2-[5-(3-Fluorobenzenesulfonylamino)-1H-indazol-3-yl]phenyl}acetamide] | 
20 |  | 26% |  | CS(=O)(=O)c1ccccc1S(=O)(=O)Nc1ccc2[nH]nc(C#N)c2c1 [Example 5, N-(3-Cyano-1H-indazol-5-yl)-2-methylsulfonylbenzenesulfonamide] | inhibition at 30 µM (human FAK): 80%
21 | 33% | 63% | 84% | O=[N+]([O-])c1ccccc1CS(=O)(=O)Nc1ccc2[nH]nc(-c3ccccc3)c2c1 [Example 151, C-(2-Nitrophenyl)-N-(3-phenyl-1H-indazol-5-yl)-methanesulfonamide] | 
22 | 76% | 28% |  | CS(=O)(=O)c1ccccc1S(=O)(=O)Nc1ccc2[nH]nc(C(N)=O)c2c1 [Example 20] | 
